Measurements as given in PMC8009417, “Selective killing of homologous recombination-deficient cancer cell lines by inhibitors of the RPA:RAD52 protein-protein interaction” (PLoS ONE, 2021).

How the values were obtained:
[1] = test system: homologous recombination (HR) in U2OS-DR cells; assay: Cell-based DSB repair assay, HR (DR-GFP reporter, FACS); settings: 4 nM, 2 h pre-treatment, three days
Experimental: (A) The effect of mitoxantrone (MX) on SSA and HR were studied with cell-based DSB repair assays. U2OS-SA and U2OS-DR cells were pre-treated with mitoxantrone for two hours before transfection of the SceI-expression plasmid. Then cells were grown in the presence of mitoxantrone for three days. DSB repair activities were determined by (B) FACS analysis. […] U2OS-SA cells were pre-treated with indicated concentrations of mitoxantrone for two hours, before I-SceI-expression vector transfection. After 72 hours incubation, the cells were harvested, and lysates were prepared. Lysate from each treatment was analyzed by 12% SDS-PAGE and the expression levels of I-SceI was determined by the western blot using anti-HA antibody. The p70 of RPA was used as a loading control. Ratios of I-SceI to p70 was obtained with ImageJ and are shown at the bottom of the image. C: control experiment without the addition of mitoxantrone. (D, E) Analysis of DSB repair activiies by western blots. […] At least three independent experiments were performed. Error bars represent standard deviations.

[2] = test system: UWB1.289 cells with or without BRCA1 restoration; assay: Apoptosis by cleaved PARP western blot; assay type: cell-based, human; settings: 0.2 μM for three days; BRCA1-mutated vs BRCA1-restored UWB1.289
Experimental: UWB1.289 cells with or without restoration of the BRCA1 expression were treated with 0.2 μM of mitoxantrone (MX) for three days. Olaparib (Ola) at 1 μM was used as control for the induction of apoptosis. Near EC50 concentrations were selected for each compound. After the treatment with each compound, cell lysates were prepared and cleaved PARP was detected with (A) anti-cleaved PARP antibody (Cell Signaling Technology #9541) and (B) anti-PARP antibody (Cell Signaling Technology #9542). Tubulin detected with anti-beta-tubulin antibody (Cell Signaling Technology #15115) was used as an internal control. (C) Ratios of cleaved PARP to tubulin were determined with ImageJ and graphed. Three independent experiments were performed and the mean values are shown. The bars indicate standard deviations. Statistical significance of differences was determined with Student t-test (* p<0.05 and ** p<0.01).

RAD52 protein level = assay: Simple Western of RAD52 protein level after treatment; assay type: cell-based, human; settings: 72 h at doses near EC50
Experimental: (§1) Fig 6 The effect of mitoxantrone treatment on RAD52 levels and DNA damage. […] Data and ANOVA statistical analyses are described in the material and methods section. Significance statistics are shown with single, double, or triple asterisks representing P<0.05, P<0.005, or P<0.0005, respectively.
(§2) For western analysis, each cell line was grown and treated as described above. Protein levels were measured in lysates by size separation with a ProteinSimple PeggySue instrument following the manufacturer’s recommendations. Lysates were prepared using the NanoPro Cell Lysis Kit with Bicine/CHAPS (ProteinSimple CBS403) at 0.75 mg/mL concentration when mixed with master mix (containing SDS, DTT and fluorescent molecular weight markers; ProteinSimple PS-FL01-8) and heated for 5 min at 95°C. Electrophoretic nanocapillary size separation of proteins was performed using default settings. After separation, UV light cross-linked proteins to the capillary wall. Capillaries were then washed and incubated with primary antibodies, washed, and incubated with anti-rabbit secondary antibody conjugated with HRP (ProteinSimple DM-001). Finally, luminol and peroxide were applied to generate chemoluminescence which was imaged by a CCD camera. Primary antibody concentrations were optimized and were diluted as follows: Abcam anti-RAD52 antibody (ab18263, diluted 1:25), R&D Systems Human Phospho-histone H2AX (S139) antibody (AF2288, diluted 1:100), and Cell Signalling Technology Pan-Actin antibody (#4968, diluted 1:2500).
(§3) The Simple western data were processed and analyzed with ProteinSimple Compass software. Peak areas were calculated using dropped lines. Each lysate was analyzed for RAD52 and γH2AX levels three times and for Actin two times (see S2 Fig). Replicate peak areas for RAD52 and γH2AX were averaged, divided by the average Actin peak area of that sample, multiplied by 100 and graphed using SigmaPlot 7.0.

γH2AX (DNA damage) = assay: Simple Western of γH2AX (DNA damage) after treatment; assay type: cell-based, human; settings: 72 h at doses near EC50
Experimental: as §1, §2, §3

[3] = test system: GFP-RAD51 foci in PE01 C4-2 cells; assay: Radiation-induced GFP-RAD51 foci formation; assay type: cell-based, human; settings: 3 nM pre-treatment, 15 Gy X-ray
Experimental: (§4) Cells without mitoxantrone and radiation (labeled C) were controls. The average percent of cells with foci (more than 5 foci per cell) are graphed from three independent experiments. More than 30 cells per experiment were analyzed. Error bars represent standard deviation.
(§5) Each cell line was seeded on a coverslip at 10^5 cells per well in a 24-well plate. After the 24 hour incubation, the cells were pre-incubated with mitoxantrone for 2 hours, then irradiated with X-ray at 15 Gy with the RS-2000 Irradiator. After 2~ 8 hours of the irradiation, the cells were fixed in 10% formaldehyde solution at room temperature for 30 min, followed by 10 min incubation in PBS containing 0.5% Triton X-100. After staining with 1 μg/ml H1399 Hoechst dye solution, each coverslip was mounted on a slide. GFP proteins were detected with a Zeiss 710 Confocal Laser Scanning Microscope, and images were processed using Zeiss ZEN software. A cell contained more than 5 foci was considered as positive.

[4] = test system: GFP-RAD52 foci in PE01 C4-2 cells; assay: Radiation-induced GFP-RAD52 foci formation; assay type: cell-based, human; settings: 3 nM pre-treatment, 15 Gy X-ray
Experimental: as §4, §5

[5] = test system: PARPi-resistant UWB1.289.SYr12 cells; assay: Cell viability assay (PrestoBlue, 72 h), UWB1.289.SYr12; assay type: cell-based; settings: Homo sapiens, estimated from the graphs
Source text: BRCA1-deficient UWB1.289 cells corrected with wild-type BRCA1 gene (BRCA1+; closed triangle) and parental BRCA1-deficient UWB1.289 (BRCA1-; closed circle). Two PARPi-resistant cell lines derived from UWB1.289, UWB1.289.SYr12 (closed diamond) and UWB1.SYr13 (X), were also examined.
UWB1.289 (a gift from Dr. Lee Zou, Harvard Medical School, Boston, MA) were derived from a serous ovarian carcinoma with a germline BRCA1 mutation and a deletion of the wild-type allele. […] Two PARP-resistant cell lines, SYr12 and SYr13, were derived from the UWB1.289. The Mammary Epithelial growth media, along with SupplementMix solution for UWB1 cell lines, were obtained from PromoCell GmbH and mixed as described.
Cells were seeded 5 x 10^3 cells per well in 96-well plates in a 90 μL volume per well one day before treatment. Cells in 96-well plates were incubated with increasing concentrations of the compound or vehicle control (1% DMSO) for 72 hours. Each treatment plate contained nine concentrations of a compound in sextuplicate. Growth inhibition was determined using PrestoBlue reagent (Life Technologies, #A13261). Fluorescent measurements were taken using a Spectramax M5 plate reader (MDS). To assess cells’ replication in the absence of compounds as a control, six wells on each plate were treated with vehicle to be read in triplicate at the initial treatment day (T0) and at 72-hour read (T100).

O=C1c2c(O)ccc(O)c2C(=O)c2c(NCCNCCO)ccc(NCCNCCO)c21 [Mitoxantrone, mitoxantrone]
HR suppression [1]: 40% ± 7%
Induction of apoptosis (cleaved PARP) [2]: preferentially induced apoptosis in the BRCA1-mutated UWB1.289
Change of RAD52 level with treatment (RAD52 protein level; HCC1937 cells): the level of RAD52 increased
Change of RAD52 level with treatment (RAD52 protein level; PE01 cells): dramatic reduction in RAD52 protein
Change of RAD52 level with treatment (RAD52 protein level; UWB1 cells): the level of RAD52 decreased
DNA damage (γH2AX) from treatment (γH2AX (DNA damage); HCC1937 cell lines): low to negligible levels of DNA damage
DNA damage (γH2AX) from treatment (γH2AX (DNA damage); PE01 cells): substantial increase in DNA damage
DNA damage (γH2AX) from treatment (γH2AX (DNA damage); UWB1 cell lines): low to negligible levels of DNA damage
Effect on radiation-induced RAD51 foci formation [3]: did not suppress the radiation-induced RAD51 foci formation
Effect on radiation-induced RAD52 foci formation [4]: inhibited the radiation-induced RAD52 foci formation
EC50 [5]: 2400 nM
